Key:
[1] = Solubility description in water and organic solvents; type: physicochemical
[2] = in vivo
[3] = Effective dose 50 % (DE50) per os in the rat; type: in vivo
Description: (§1) En effet, les comparaisons respectives des DE50 (dose efficace 50 %) et DL50 (dose léthale 50 %) per os, chez le rat, de ladite indométacine calcique pentahydratée et de ladite indométacine libre sont nettement à l'avantage de ladite indométacine calcique.

[4] = Lethal dose 50 % (DL50) per os in the rat; type: in vivo
Description: as §1

| Molecule | solubilité dans l'acétonitrile [1] | solubilité dans l'eau [1] | solubilité dans l'éther [1] | solubilité dans le chloroforme ([1]; chloroforme) | solubilité dans le diméthylformamide ([1]; diméthylformamide) | solubilité dans le tétrahydrofuranne ([1]; tétrahydrofuranne) | tolérance locale par voie rectale [2] | activité pharmacologique ([3]; compared with the acid form) | DE50 ([3]; dose efficace 50 %, per os, rat) | DL50 ([4]; dose léthale 50 %, per os, rat) [mg/kg] | toxicité par voie orale ([4]; par voie orale, compared with the acid form) | Index thérapeutique : DL50/DE50 ([4]; per os, rat, ratio DL50/DE50) | ED50 ([3]; po, dose efficace 50 %, per os, rat) [mg/kg] | LD50 ([4]; in vivo, po, dose léthale 50 %, per os, rat) [mg/kg] |
| --- | --- | --- | --- | --- | --- | --- | --- | --- | --- | --- | --- | --- | --- | --- |
| indométacine calcique pentahydratée | pratiquement insoluble | pratiquement insoluble | pratiquement insoluble | pratiquement insoluble | facilement soluble | soluble | une meilleure tolérance locale | équivalente | 2,5 mg/kg | 45 | une toxicité diminuée | 18 | – | – |
| COc1ccc2c(c1)c(CC(=O)O)c(C)n2C(=O)c1ccc(Cl)cc1 [Indométacine, acide 1-(p-chlorobenzoyl)-5-méthoxy-2-méthylindole-3-acétique, reference compound] | – | – | – | – | – | – | – | – | – | – | – | – | 3 | 28 |

Reference: EP0856511B1, “Calcium salt of indomethacin pentahydrate and its preparation” (Promindus (Actions Promotionnelles dans l'Industrie et le …, priority 1997, dated 1998)
